Data set [1] deals with human liver cancer cells (HepG2). Briefly: MTT antiproliferative assay, HepG2. It is filed as cell-based. As for the experimental part: (§1) Human lung cancer cell (A549,), human umbilical vein endothelial cells (HUVECs,), human colon cancer cell lines (HCT-15), human breast cancer cells (MCF-7), human liver cancer cells (HepG2), human pancreatic cancer cells (BxPC-3), and human hepatic cell line (L-02) were obtained from the Sichuan University. A549, HUVECs, and L-02 were cultured in DMEM medium (high glucose, HyClone, GE Healthcare, Sydney, Australia). Human colon cancer cell lines HCT-15, human pancreatic cancer cells […] BxPC-3 were cultured in RPMI-1640. Human breast cancer cells MCF-7 and human liver cancer cells HepG2 were cultured in MEM medium. All the mediums, including 10% fetal bovine serum (FBS, HyClone, GE Healthcare, Sydney, Australia) and 1% ampicillin/streptomycin, were used to culture the above cells at 37 °C in a humidified atmosphere (5% CO2 and 95% air).
(§2) The antiproliferative activity of the title compounds was determined using the MTT (3-(4,5-dimethylthiazol-2-yl)-2,5-diphenyltetrazolium bromide, Sigma-Aldrich, Saint Louis, MO, USA) assay on different cells. Cells lines were seeded into 96-well plates at a density of 2000 to 6000 cells/well. DMSO was used to dissolve the test compounds, and TET was used as a positive control. After 24 h, the test compounds were added at different concentrations (0.625, 1.25, 2.5, 5, 10, and 20 μM) and incubated at 37 °C for 72 h. MTT was added to each well at a final concentration of 0.5 mg/mL and incubated at 37 °C for 4 h. Then, 150 μL of DMSO was added to each well to dissolve the formazan crystals. The absorbance was measured at 570 nm by a microplate reader (ELX800UV, Bio-Tek, Windoski, VT, USA). All measurements were repeated at least three times under the same conditions. Graphpad Prism 8.0 was used to calculate the IC50 values.

The test system of data set [2] is human pancreatic cancer cells (BxPC-3). The data set can be described thus: MTT antiproliferative assay, BxPC-3. In kind it is cell-based. As for the experimental part: as §1, §2
For orientation: Tetrazolium dyes change colour on reduction, which living cells bring about.

Data set [3] deals with human umbilical vein endothelial cells (HUVEC). Briefly: MTT antiproliferative assay, HUVEC. The settings on record: 72 h. In kind it is cell-based. As for the experimental part: as §1, §2
Data set [4] has as its system human normal hepatocyte cells (L-02). The data set can be described thus: MTT toxicity assay, normal hepatocytes L-02. In kind it is cell-based. The settings on record: 72 h, normal hepatocyte L-02 (toxicity), read-out: Antiproliferative Activity (IC50/μM) L-02. As for the experimental part: as §1, §2
The nature of data set [5]: Aqueous solubility determination by HPLC. As to conditions: neutral water, vs TET. In kind it is physicochemical. As for the experimental part:
Briefly, each tested compound (10 mg) was dissolved in 10 mL of CH3OH, and the standard solution (0.5 mL) was used to determine the wavelength of maximum absorbance by HPLC. The solution was diluted as necessary, and the solubility was determined by linear regression with R^2 > 0.999. Each tested compound (5 mg) was ultrasound dissolved in 3 mL of pure water for 1 h at room temperature, and the mixture was then […] at 3000 rpm for 15 min. The saturated supernatants were determined by HPLC at the wavelength of the maximum absorption, and the absorbances were obtained. The solubility was calculated according to the standard curve.

The test system of data set [6] is HCT-15 cells. Briefly: Wound healing (migration) assay, HCT-15. It is filed as cell-based, human. As to conditions: 24 h, control approximately 46%. As for the experimental part: (§3) HCT-15 cells or HUVECs were seeded in six-well culture plates and allowed to grow to 80–90% confluence. Subsequently, a cell-free line was manually created by scratching the confluent cell monolayers with a 200 μL sterile pipette tip, and the detached cells were washed with PBS. The cells were then incubated with 10% FBS and different concentrations of 16 (0.625, 1.25, 2.5, 5, and 10 μM). Then, 24 h later, images of the same location were obtained using a microscope (Nikon ECLIPSE TE2000-U, Tokyo, Japan). Each experiment was carried out at least three times.

For data set [7], the system named is HCT-15 cells. The data set can be described thus: Live/dead FDA/PI double staining, HCT-15. In kind it is cell-based. As to conditions: Homo sapiens, HCT-15, FDA/PI, 48 h, read-out: Viable cells retained. As for the experimental part:
(§4) HCT-15 or HUVEC cells were cultured in six-well plates for 24 h. The cells were washed with PBS and incubated with medium containing 0.625, 1.25, 2.5, 5, and 10 μM of 16 for 48 h. Afterwards, the medium was replaced, and the cells were washed twice with PBS, resuspended in the solution containing 100 μL FDA (0.02 mg/mL, Sigma, St. Louis, MO, USA) and 30 μL PI (0.02 mg/mL, Sigma, St. Louis, MO, USA), and treated in the dark at room temperature for 10 min. The cells were imaged with a fluorescence microscope (Nikon ECLIPSE TE2000-U, Tokyo, Japan).

In the next data set the test system is Beclin-1. Briefly: Western blot, Beclin-1 in HCT-15 cells. It is filed as cell-based, human. As to conditions: HCT-15, increasing concentration, p < 0.01. As for the experimental part: (§5) The protein levels in HCT-15 cells were evaluated via Western blot analysis. The cells were cultured in dishes (10^7 cells per dish) and incubated overnight at 37 °C, 0.625, 1.25, 2.5, and 5 μM of 16 was added in triplicate after 24 h of incubation. Then, the cells were harvested and lysed in Laemmli buffer (glycerol, 1M TRIS pH 6.8, 1% SDS, MQ H2O and 20% β-mercaptoethanol). The samples were boiled for 5 min at 95 °C, and the protein content was determined using a BCA kit. Equal amounts of 30 μg of sample were placed on a Tris/HCl gel and separated by SDS-PAGE electrophoresis. Then, the samples were transferred to a PVDF membrane (Milibo, Co., Ltd., Billyka, MA, USA) and blocked with 5% skimmed milk powder for 2 h. Diluted primary antibodies Bcl-2 (1:3000), Bax (1:10,000), caspase-3 (l:2000), p62 (1:1000), Beclin1 (1:1000), LC3 (1:2000), and β-actin (1:1000) were incubated overnight at 4 °C, followed by a horseradish peroxidase-conjugated goat anti-rabbit IgG secondary antibody (ProteinTech, China) for 2 h at room temperature. Then, immunoreactivity was developed with diaminobenzidine solution, and scanned and recorded by a gel imaging system (G:BOX Chemi XL1.4, Frederick, MD, USA).
On the technique in general: A western blot detects proteins with antibodies after separation by electrophoresis.

In a further data set the test system is Bax/Bcl-2. The data set can be described thus: Western blot, Bax/Bcl-2 in HCT-15 cells. In kind it is cell-based, human. The settings on record: HCT-15, only at 5 μM, p < 0.05. As for the experimental part: as §5
Data set [8] in a line: Live/dead FDA/PI double staining, HUVEC. The settings on record: human, HUVEC cells, read-out: Viable cell percentage. In kind it is cell-based. As for the experimental part:
as §4

Another data set has as its system HUVECs. The data set can be described thus: Wound healing (migration) assay, HUVEC. It is filed as cell-based, human. As to conditions: 10 μM, 24 h, control 85%. As for the experimental part:
as §3

“And” between values parts separate entries of the source, which are not always exact repeats. Equal values may be shown once. Where only a bound is given, the exact number is not on record here.

Consider `COc1cc(NC(=O)[C@@H]2CCCN2)c2cc1Oc1ccc(cc1)C[C@H]1c3cc(c(OC)cc3CCN1C)Oc1c(OC)c(OC)cc3c1[C@H](C2)N(C)CC3` [Compound 16, 14-N-(L-proline)-tetrandrine], for which the IC50 is 1.05 ± 0.03 µM in data set [1] (72 h); less than 1.5 µM in data set [1] (Homo sapiens, HepG2, 72 h); 1.12 ± 0.1 µM in [2] (72 h); less than 1.5 µM in data set [2] (Homo sapiens, BXPC-3, 72 h); 1.48 ± 0.01 µM in data set [3]; more than 20 µM in data set [4]. The “Increase of aqueous solubility compared to TET” value in data set [5] is > 5 fold and 5 fold. Further, the “Scratched area covered (migration rate)” value with HCT-15 cells [6] (HCT-15, 5 μM) is listed as 14.1%; with HCT-15 cells [6] (HCT-15, 10 μM) it was 10.5%. Further, the viability at 5 µM in the data set with HCT-15 cells [7] (5 μM) amounted to 18.3%. Also, the viability at 10 µM in the data set with HCT-15 cells [7] (10 μM) is 17.6%. In addition, the Beclin-1 level entry in the data set with Beclin-1 is “markedly enhanced”. The “Ratio of Bax/Bcl-2” value in the data set on Bax/Bcl-2 is given as “enhanced”. Moreover, the viability at 48 h, 5 µM in data set [8] (5 μM) stood at 1.9%. Further, the viability at 48 h, 10 µM in data set [8] (10 μM) is 0.1%. Moreover, the Migration rate with HUVECs was 10.0%.
